Article PMC10541456, “A phase I, single‐center, open‐label study to investigate the absorption, distribution, metabolism and excretion of encorafenib following a single oral dose of 100 mg [ ^14C] encorafenib in healthy male subjects” (Pharmacology Research & Perspectives, 2023)
Like-named read-outs stand apart in the source and are kept apart here.

Tests used:
[1] = Plasma PK of non-radiolabeled encorafenib; type: in vivo, human; settings: for Vd/F: read-out: Vz/F
[2] = Metabolite profiles in plasma (UPLC, radioactivity detection, MS); type: in vivo, human
Protocol: To the thawed plasma samples (1.5 mL plasma/ time points) two volumes of ice‐cold acetonitrile:ethanol:acetic acid (90:10:0.1, v/v) were added, followed by vortex mixing (10 min) and sonication (10 min). After centrifugation, the supernatants (4.2 mL) were evaporated to near dryness under a gentle stream of nitrogen on a TurboVap LV (Zymark Corp.). The residues were reconstituted in 80 μL of methanol:water:acetic acid (50:50:0.1, v/v) and 45 μL were injected into the ultra‐performance liquid chromatography (UPLC) system with off‐line radioactivity detection.
(§1) Characterization and quantification of the metabolites of encorafenib in select human plasma and excreta samples were performed by the Department of DMPK (Drug Metabolism and Pharmacokinetics) at the Novartis Institutes for Biomedical Research (East Hanover, NJ, USA) using liquid chromatography (LC) coupled to radioactivity detectors and mass spectrometers (MS).
(§2) The analytical system consisted of a Waters ACQUITY UPLC system (Waters), equipped with a Phenomenex Luna PFP column (3 μm, 4.6 × 150 mm) (Phenomenex) and a guard column of the same phase, both maintained at a temperature of 30°C. The mobile phases consisted of 10 mM ammonium acetate containing 0.1% formic acid (v/v) (solvent A) and CH3CN (solvent B). The total run time was 80 min. A linear gradient elution program was used with a flow rate of 1 mL/min as described in Table 1.
(§3) The UPLC effluent was split 4:1, with […] of the total flow introduced to the mass spectrometer for mass spectral analysis and the remaining flow used for radioactivity detection.
For off‐line radioactivity detection, the eluant was collected into 96‐well Lumaplate (Packard Instrument Co) microplates using a Collect Pal fraction collector (Leap Technologies) with a collection time of 10 seconds per well. The LumaPlates were sealed after drying and counted for 10–50 min per well on a Packard Topcount microplate scintillation counter. The structural characterization of metabolites was carried out using the above UPLC profiling method coupled to a two‐channel Z‐spray (LockSprayTM) time‐of‐flight mass spectrometer (Synapt MS). Leucine enkephalin was used as the mass reference standard for exact mass measurements and was delivered via the second spray channel at a flow rate of 5 μL/minute. The mass spectrometer was operated at a resolution of ~10 000 m/ΔmFWHM with spectra being collected from 100 to 1000 amu. The ionization technique employed was positive electrospray. The sprayer voltage was kept at 3100 V and the sampling cone voltage was kept at a potential of 20 V. For the time‐of‐flight MS/MS experiments, trap energies of 25 to 45 eV and transfer energy of 15 eV were used with argon as the collision gas.
(§4) All radioactivity data were transferred to Laura software (version 4.2.2.24, Lab Logic Ltd, UK) to generate and integrate radio‐chromatograms. Radioactive peaks for quantitative analysis were manually selected from the plots. The radioactivity in the region encompassing the beginning and end of the peak was summed. All further calculations were based on radioactivity.
(§5) The percent of radioactivity (%RA) in a particular peak, Z, was calculated as follows in Equation (1): (1) %RAinZ=DPMin PeakZ/totalDPMinallintegrated peaksx100
(§6) The concentration or amount of each component was calculated as % RA (expressed as a fraction) multiplied by the total concentration of radioactivity in plasma, or the percent of dose in the excreta.

[3] = Metabolite profiles in excreta (urine, feces); type: in vivo, human
Protocol: A pool of equal percent volume of urine (0–48 h) was prepared for each subject. An aliquot (1.5 mL) of the pooled sample was concentrated ~7‐fold by reducing the volume under nitrogen and then combined with 50 μL methanol:water:acetic acid (50:50:0.1; v/v) followed by centrifugation at 3500 rpm (~1000 × g) for 10 min. The aliquot was then injected onto the UPLC system with off‐line radioactivity detection.
A pool of approximately equal percent by weight of feces (from 0–96 h or 0–120 h) was prepared for each subject. Feces samples were extracted two times with 2 equivalent volumes of acetonitrile: each time with 10 min of vortexing, 10 min of sonication, and centrifugation at 3500 rpm (~1000 × g) for 10 min. An aliquot of the combined supernatant was concentrated approximately 5‐fold by evaporating to dryness under nitrogen and reconstituting in methanol:water:acetic acid (50:50:0.1, v/v) 45 μL of the concentrated, reconstituted samples was injected onto the UPLC system with off‐line radioactivity detection.
as §1, §2, §3
For off‐line radioactivity detection, the eluant was collected into 96‐well Lumaplate (Packard Instrument Co) microplates using a Collect Pal fraction collector (Leap Technologies) with a collection time of 10 seconds per well. The LumaPlates were sealed after drying and counted for 10–50 min per well on a Packard Topcount microplate scintillation counter. The structural characterization of metabolites was carried out using the above UPLC profiling method coupled to a two‐channel Z‐spray (LockSprayTM) time‐of‐flight mass spectrometer (Synapt MS). Leucine enkephalin was used as the mass reference standard for exact mass measurements and was delivered via the second spray channel at a flow rate of 5 μL/minute. […]
as §4, §5, §6

[4] = Safety and tolerability in healthy male subjects; type: in vivo, human
Protocol: This study (ClinicalTrials.gov ID, NCT01436656) was a single‐center, open‐label study to investigate the ADME of encorafenib after a single oral administration of 100 mg (90 μCi) [^14C] encorafenib in healthy male subjects. A total of four evaluable subjects were enrolled and dosed. The study consisted of a screening period, a baseline period, a single dose treatment and a 96 h post‐dose observation period. A safety follow‐up assessment by phone was conducted 30 days after administration of 100 mg (90 μCi) [^14C] encorafenib. Subjects completed an overnight fast of at least 10 h prior to administration of the study drug. Subjects were discharged from the clinical site provided that the subject's recovery of [^14C] encorafenib‐related radioactivity was at least 90% of the administered dose. The study duration period could be prolonged if the subject's recovery of related radioactivity was less than 90% by the fifth‐day post‐treatment or the subject had two consecutive 24‐h combined urine and fecal collections yielding ≥1% of dose.

[5] = parameters: method as in earlier work; settings: cited from earlier work
[6] = human, plasma, oral, 100 mg, GeoMean (GeoCV%)
[7] = human, plasma, oral, 100 mg, Mean (SD)
[8] = human, plasma, oral, 100 mg, Median (Minimum–Maximum)
[9] = plasma, Median (Minimum–Maximum)
[10] = single 100 mg oral dose, 4 healthy male subjects

COC(=O)N[C@@H](C)CNc1nccc(-c2cn(C(C)C)nc2-c2cc(Cl)cc(NS(C)(=O)=O)c2F)n1 [encorafenib]
Variability of apparent oral clearance, this study ([1]; healthy subjects, 100 mg): 37% | AUC(0-t) ([1]; human, plasma, oral, 100 mg, plasma, GeoMean (GeoCV%), read-out: AUC0-24): 3680 ng·h/mL | AUC(0-t) ([1]; human, plasma, oral, 100 mg, plasma, GeoMean (GeoCV%), read-out: AUClast): 3720 ng·h/mL | AUC(0-t) ([1]; human, plasma, oral, 100 mg, plasma, Mean (SD), read-out: AUC0-24): 3850 ng·h/mL | AUC(0-t) ([1]; human, plasma, oral, 100 mg, plasma, Mean (SD), read-out: AUClast): 3910 ng·h/mL | Vd/F ([1]; human, plasma, oral, 100 mg, plasma, Mean (SD)): 235 L | AUC(0-t) ([1]; human, plasma, oral, 100 mg, plasma, Median (Minimum–Maximum), read-out: AUC0-24): 3570 ng·h/mL | AUC(0-t) ([1]; human, plasma, oral, 100 mg, plasma, Median (Minimum–Maximum), read-out: AUClast): 3600 ng·h/mL | Vd/F ([1]; human, plasma, oral, 100 mg, plasma, Median (Minimum–Maximum)): 228 L | AUC(0-inf) [1, 6]: 3750 ng·h/mL | Cmax [1, 6]: 1040 ng/mL | half-life [1, 6]: 353 min | Cmax [1, 7]: 1050 ng/mL | half-life [1, 7]: 367 min | AUC(0-inf) [1, 8]: 3610 ng·h/mL | Cmax [1, 8]: 1080 ng/mL | half-life [1, 8]: 379 min | Vd/F ([1]; male, human, plasma, oral, 100 mg, plasma, GeoMean (GeoCV%)): ~226 L | Tmax ([1]; male, human, plasma, oral, 100 mg, plasma, Median (Minimum–Maximum), read-out: Tmax): 46.2 min | AUC(0-inf) ([1]; male, human, plasma, po, 100 mg, Mean (SD), n=4, 100 mg oral): 3940 ng·h/mL | Vz/F ([1]; plasma, GeoMean (GeoCV%)): 226 (32.7) L | CL/F ([1]; plasma, Mean (SD)): 27.9 (9.15) L/h | CL/F [1, 9]: 28.4 (17.1–37.6) L/h | Tmax [1, 9]: 0.767 (0.500–1.00) h | Mean (range) Circulating Radioactivity in Plasma Based on AUC0-24 ([2]; 100 mg oral [14C] encorafenib): 4400 (2340–7140) ngEq/mL*h | Mean (range) Circulating Radioactivity in Plasma Based on AUC0-24 (%) ([2]; M12.8 value is sum of M12.8 and M13.2): 27.5% | Mean (range) Circulating Radioactivity in Plasma Based on AUC0-24 (%) ([2]; M12.8 value is sum of M12.8 and M13.2, listed as Encorafenib (LGX818)): 27.5 (17.9–36.4) % | Component in feces, average ([3]; feces pool 0–96 h or 0–120 h, average of four subjects): 5.0 % of the administered radioactive dose | Metabolism as clearance pathway, share of the recovered radioactive dose ([3]; humans): ~ 88% | CLr as share of the glomerular filtration rate (7.5 L/h) ([3]; in vivo): 7% | CL renal ([3]; male, human, urine and plasma, oral, 100 mg, amount in urine divided by mean plasma AUCinf, read-out: Renal clearance (CLr), estimated mean (converted)): 8.33 mL/min | Component in urine, average ([3]; urine pool 0–48 h, average of four subjects): 1.8 % of the administered radioactive dose | Grade 2, 3 or 4 adverse events ([4]; single 100 mg oral dose): No grade 2, 3 or 4 AEs were reported | Subjects with AEs suspected to be related to the study drug [4, 10]: 50.0% | Subjects with at least one adverse event [4, 10]: 75.0% | Laboratory evaluations, vital signs, ECG ([4]; single-dose administration): no significant abnormalities | Overall safety and tolerability ([4]; single-dose administration): safe and well‐tolerated | Dose proportionality of systemic exposure ([5]; after a single dose, dose range 50 mg to 700 mg): dose‐proportional | Variability of apparent oral clearance, encorafenib labeling [5]: 54%
